Experimental data as given in patent US9809623B2, “α4β7 peptide monomer and dimer antagonists” (Protagonist Therapeutics, Inc., priority 2014, dated 2017).
Like-named read-outs stand apart in the source and are kept apart here. Numbered stars: 1 amine (or outer) side, 2 acyl side, 3 side chain; on linkers, the order of the positions; unused ones are H or OH. Bridge positions count the residues as written; N and C are the ends. Square brackets hold non-standard residues; d marks the D form. Peptide text beside a SMILES is read from it. I, II: the chains in the order shown. Diglycolyl = O=C(COCC(=O)[*:2])[*:1]; NMeR = CN[C@@H](CCCNC(=N)N)C(=O)O; Pen = CC(C)(S)[C@H](N)C(=O)O

Legend:
[1] = molecular target: T1, α4β7 (Mus musculus, UniProt P26011+Q00651); assay: α4β7 Cell Adhesion Assay (Mouse), TK1 cells; assay type: cell-based
T1 construct: host or cells: TK1 mouse T cells
T1 sequence (Q00651 34-1039 limits assumed): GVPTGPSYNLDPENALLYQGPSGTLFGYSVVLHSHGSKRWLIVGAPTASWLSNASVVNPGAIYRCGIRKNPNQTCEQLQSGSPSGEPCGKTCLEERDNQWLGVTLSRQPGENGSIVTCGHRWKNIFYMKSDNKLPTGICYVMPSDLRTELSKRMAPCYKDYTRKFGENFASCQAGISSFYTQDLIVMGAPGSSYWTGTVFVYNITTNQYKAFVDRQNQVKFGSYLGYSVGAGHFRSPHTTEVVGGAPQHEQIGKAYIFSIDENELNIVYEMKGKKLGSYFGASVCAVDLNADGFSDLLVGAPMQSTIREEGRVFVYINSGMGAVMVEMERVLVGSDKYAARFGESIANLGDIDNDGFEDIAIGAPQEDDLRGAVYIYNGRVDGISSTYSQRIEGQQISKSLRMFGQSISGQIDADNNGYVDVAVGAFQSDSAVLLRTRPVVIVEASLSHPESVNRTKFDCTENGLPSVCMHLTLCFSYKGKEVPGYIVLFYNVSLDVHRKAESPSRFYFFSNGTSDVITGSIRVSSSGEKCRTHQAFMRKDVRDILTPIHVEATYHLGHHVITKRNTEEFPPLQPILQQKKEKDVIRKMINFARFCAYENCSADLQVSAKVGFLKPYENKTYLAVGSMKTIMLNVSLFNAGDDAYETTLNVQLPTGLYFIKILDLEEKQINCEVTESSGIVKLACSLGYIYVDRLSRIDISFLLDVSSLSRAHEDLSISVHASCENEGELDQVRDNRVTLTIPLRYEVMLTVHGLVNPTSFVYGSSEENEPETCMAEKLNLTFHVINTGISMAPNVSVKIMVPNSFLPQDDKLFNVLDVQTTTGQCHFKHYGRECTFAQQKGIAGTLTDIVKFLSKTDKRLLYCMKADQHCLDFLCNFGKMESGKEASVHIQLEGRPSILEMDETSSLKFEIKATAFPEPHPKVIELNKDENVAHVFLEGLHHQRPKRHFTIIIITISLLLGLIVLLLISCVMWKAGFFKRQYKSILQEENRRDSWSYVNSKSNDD
T1 sequence (P26011 20-806): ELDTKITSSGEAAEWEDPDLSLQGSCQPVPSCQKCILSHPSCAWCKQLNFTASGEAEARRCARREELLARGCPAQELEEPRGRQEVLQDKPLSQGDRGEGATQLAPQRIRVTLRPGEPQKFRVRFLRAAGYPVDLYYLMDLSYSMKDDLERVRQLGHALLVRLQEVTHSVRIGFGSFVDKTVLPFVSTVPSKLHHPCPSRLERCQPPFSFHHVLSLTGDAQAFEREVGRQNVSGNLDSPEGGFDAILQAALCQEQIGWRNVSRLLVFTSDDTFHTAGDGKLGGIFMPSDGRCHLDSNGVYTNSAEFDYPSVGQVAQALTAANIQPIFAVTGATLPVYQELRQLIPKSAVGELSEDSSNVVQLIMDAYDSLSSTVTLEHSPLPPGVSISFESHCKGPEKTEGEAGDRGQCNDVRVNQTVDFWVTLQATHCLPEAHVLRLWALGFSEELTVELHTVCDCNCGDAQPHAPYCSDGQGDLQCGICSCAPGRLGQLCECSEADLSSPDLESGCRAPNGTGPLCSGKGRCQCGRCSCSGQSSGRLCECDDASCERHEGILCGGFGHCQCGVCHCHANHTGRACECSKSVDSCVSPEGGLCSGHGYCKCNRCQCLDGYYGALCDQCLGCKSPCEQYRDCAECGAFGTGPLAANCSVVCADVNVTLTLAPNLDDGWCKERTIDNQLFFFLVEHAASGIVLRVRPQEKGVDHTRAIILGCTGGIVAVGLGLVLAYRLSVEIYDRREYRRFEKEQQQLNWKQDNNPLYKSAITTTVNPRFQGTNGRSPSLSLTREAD
Procedure, shortened: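 Mouse TK1 cells in DMEM with 0.1% BSA, 10 mM HEPES pH 7 and 1 mM MnCl2 were allowed to adhere for 30-45 min at 37 °C to plates coated with recombinant human MAdCAM-1 Fc (200 ng/well) in the presence of serially diluted peptides. Adherent cells were quantified by MTT absorbance at 570 nm, with no-cell background subtracted for dose response.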

[2] = molecular target: α4β1 (Homo sapiens, UniProt P05556+P13612); assay: α4β1-VCAM Cell Adhesion Assay (Jurkat E6.1 human cells); assay type: cell-based; design: host or cells: Jurkat E6.1 human T cells
Sequence of α4β1 (P13612 34-1032): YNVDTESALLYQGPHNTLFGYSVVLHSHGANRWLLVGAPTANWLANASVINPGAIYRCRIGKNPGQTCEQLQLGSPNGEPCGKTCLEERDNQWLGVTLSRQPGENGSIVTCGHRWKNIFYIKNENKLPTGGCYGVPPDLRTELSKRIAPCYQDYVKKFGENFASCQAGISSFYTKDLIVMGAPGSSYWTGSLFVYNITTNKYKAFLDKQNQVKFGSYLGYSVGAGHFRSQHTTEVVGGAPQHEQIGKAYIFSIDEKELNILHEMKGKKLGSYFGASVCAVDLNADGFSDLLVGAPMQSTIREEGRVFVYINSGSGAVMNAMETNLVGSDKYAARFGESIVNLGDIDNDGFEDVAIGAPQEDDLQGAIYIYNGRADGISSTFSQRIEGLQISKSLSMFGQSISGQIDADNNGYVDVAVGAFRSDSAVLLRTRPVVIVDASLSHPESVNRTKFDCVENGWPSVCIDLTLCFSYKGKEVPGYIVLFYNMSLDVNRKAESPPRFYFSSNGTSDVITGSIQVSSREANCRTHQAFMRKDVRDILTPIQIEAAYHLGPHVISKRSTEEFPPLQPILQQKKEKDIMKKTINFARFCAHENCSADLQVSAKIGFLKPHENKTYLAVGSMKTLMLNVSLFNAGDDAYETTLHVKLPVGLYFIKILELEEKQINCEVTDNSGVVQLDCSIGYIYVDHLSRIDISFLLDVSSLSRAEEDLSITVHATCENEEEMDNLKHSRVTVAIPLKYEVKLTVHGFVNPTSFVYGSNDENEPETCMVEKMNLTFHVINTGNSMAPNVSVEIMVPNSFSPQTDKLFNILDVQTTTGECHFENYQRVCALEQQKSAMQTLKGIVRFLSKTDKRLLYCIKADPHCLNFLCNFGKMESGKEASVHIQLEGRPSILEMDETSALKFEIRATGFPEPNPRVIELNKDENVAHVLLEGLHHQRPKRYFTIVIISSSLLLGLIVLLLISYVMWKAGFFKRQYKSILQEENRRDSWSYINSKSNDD
Sequence of α4β1 (P05556 21-798): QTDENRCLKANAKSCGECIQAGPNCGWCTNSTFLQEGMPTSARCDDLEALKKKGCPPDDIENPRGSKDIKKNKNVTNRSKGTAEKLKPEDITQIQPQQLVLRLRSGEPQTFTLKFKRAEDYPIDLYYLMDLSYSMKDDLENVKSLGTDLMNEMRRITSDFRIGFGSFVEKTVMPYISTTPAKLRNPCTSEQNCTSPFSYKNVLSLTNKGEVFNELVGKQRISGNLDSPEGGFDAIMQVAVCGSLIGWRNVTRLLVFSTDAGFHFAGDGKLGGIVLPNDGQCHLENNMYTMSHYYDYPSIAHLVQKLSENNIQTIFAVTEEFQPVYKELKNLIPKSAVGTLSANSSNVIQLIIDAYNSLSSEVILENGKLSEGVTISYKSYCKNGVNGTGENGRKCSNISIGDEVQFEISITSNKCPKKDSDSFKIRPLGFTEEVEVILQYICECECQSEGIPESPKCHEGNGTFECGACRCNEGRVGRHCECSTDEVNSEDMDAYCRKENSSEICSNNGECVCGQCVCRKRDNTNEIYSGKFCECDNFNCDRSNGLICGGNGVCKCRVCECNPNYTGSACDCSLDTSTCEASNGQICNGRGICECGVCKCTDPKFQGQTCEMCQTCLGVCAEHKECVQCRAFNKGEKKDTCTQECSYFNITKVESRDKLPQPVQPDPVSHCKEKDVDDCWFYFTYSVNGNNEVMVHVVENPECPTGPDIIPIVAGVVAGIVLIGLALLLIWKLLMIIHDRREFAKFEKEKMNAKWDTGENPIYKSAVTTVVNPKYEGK
Procedure, shortened: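 Jurkat E6.1 cells in DMEM with 0.1% BSA, 10 mM HEPES pH 7 and 1 mM MnCl2 were added (200,000/well) with serially diluted peptides to rh VCAM-1-Fc-coated wells (400 ng/well) for 30-45 min at 37 °C. Adherent cells after washing were quantified by MTT, absorbance 570 nm, with no-cell background subtracted for dose response.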

SMILES	IC50 ([1]; Table 3-B, Potency (α4β7), range classes, read-out: α4β7 cell(MU) IC50)	IC50 ([2]; Table 3-B, Selectivity (α4β1), range classes, read-out: α4β1 cell IC50)	IC50 ([1]; Table 4-B, read-out: Cell Adhesion α4β7 Mouse IC50)	IC50 ([2]; Table 4-B, read-out: Cell Adhesion α4β1 IC50)
CC(=O)N[C@@H]1C(=O)N(C)[C@@H](CCCNC(=N)N)C(=O)N[C@@H](CO)C(=O)N[C@@H](CC(=O)O)C(=O)N[C@@H]([C@@H](C)O)C(=O)N[C@@H](CC(C)C)C(=O)N[C@H](C(=O)N[C@@H](Cc2c[nH]c3ccccc23)C(=O)N[C@@H](CCC(=O)O)C(=O)N[C@H](CCCCNC(=O)COCC(=O)NCCCC[C@@H](NC(=O)[C@H](CCC(=O)O)NC(=O)[C@H](Cc2c[nH]c3ccccc23)NC(=O)[C@H]2NC(=O)[C@H](CC(C)C)NC(=O)[C@H]([C@@H](C)O)NC(=O)[C@H](CC(=O)O)NC(=O)[C@H](CO)NC(=O)[C@H](CCCNC(=N)N)N(C)C(=O)[C@@H](NC(C)=O)C(C)(C)SSC2(C)C)C(=O)O)C(=O)O)C(C)(C)SSC1(C)C [compound 78] (I: Ac-[Pen][NMeR]SDTL[Pen]WE[dK]-OH / II: Ac-[Pen][NMeR]SDTL[Pen]WE[dK]-OH; disulfide I:1-I:7, II:1-II:7; linker I:10-II:10 via Diglycolyl)	< 10 nM	> 100000 nM	–	–
CC(=O)N[C@@H]1C(=O)N(C)[C@@H](CCCNC(=N)N)C(=O)N[C@@H](CO)C(=O)N[C@@H](CC(=O)O)C(=O)N[C@@H]([C@@H](C)O)C(=O)N[C@@H](CC(C)C)C(=O)N[C@H](C(=O)N[C@@H](Cc2c[nH]c3ccccc23)C(=O)N[C@H](CCCCNC(=O)COCC(=O)NCCCC[C@@H](NC(=O)[C@H](Cc2c[nH]c3ccccc23)NC(=O)[C@H]2NC(=O)[C@H](CC(C)C)NC(=O)[C@H]([C@@H](C)O)NC(=O)[C@H](CC(=O)O)NC(=O)[C@H](CO)NC(=O)[C@H](CCCNC(=N)N)N(C)C(=O)[C@@H](NC(C)=O)C(C)(C)SSC2(C)C)C(N)=O)C(N)=O)C(C)(C)SSC1(C)C [compound 209, (Ac-Pen-N-Me-R-S-D-T-L-Pen-W-k-NH2)2-DIG] (I: Ac-[Pen][NMeR]SDTL[Pen]W[dK]-NH2 / II: Ac-[Pen][NMeR]SDTL[Pen]W[dK]-NH2; disulfide I:1-I:7, II:1-II:7 (inferred); linker I:9-II:9 via Diglycolyl (inferred))	–	–	51 nM	> 100000 nM
